Values joined by “and” are separate entries in the source; they are usually repeats but may differ in a detail not shown here. Equal values may be shown once. *1 amine or outer side, *2 acyl side, *3 side chain or, on linkers, in order; H or OH if unused. Where a SMILES comes first, the peptide text is derived from it. The star is where a group is joined. γGlu = O=C(O)[CH](CCC(=O)[*:2])N[*:1]; NHOH = ON*
What was measured:
[1] = tested on: A498; assay: Antitumor activity was evaluated for reduction of growth of renal cancer (A498) cells at a concentration of 100 uM; type: functional, Homo sapiens
[2] = tested on: SNB-75; assay: Antitumor activity was evaluated for reduction of growth of SNB-75 cancer cells at a concentration of 100 uM; type: functional, Homo sapiens
[3] = tested on: Plasmodium falciparum; assay: Antimalarial activity against Plasmodium falciparum W2 Indochina; moderate activity; type: functional, organism-based
[4] = tested on: Plasmodium falciparum; assay: Antimalarial activity against Plasmodium falciparum D6 (Sierra Leone); moderate activity; type: functional, organism-based
[5] = Antitumor activity was evaluated for reduction of growth of non-small cell lung (NCL-H522) cancer cells at a concentration of 100 uM; type: functional, Homo sapiens, Cancer cell lines
[6] = tested on: HL-60; assay: Antitumor activity was evaluated for reduction of growth of leukemia(HL-60 (TB)) cancer cells at a concentration of 100 uM; type: functional, Homo sapiens
[7] = tested on: SNB-75; assay: Antitumor activity was evaluated for reduction of growth of CNS cancer (SNB-75)cells at a concentration of 100 uM; type: functional, Homo sapiens

In the case of `CCOC(=O)CNC(=O)C(CCC(=O)NO)NC(=O)CCC(N)C(=O)O` (stereo not given) (γGlu-Glu(NHOH)-Gly-OEt; configuration not given here), the Reduction [1] was 31%.

With `CN(O)C(=O)CCC(NC(=O)CCC(N)C(=O)O)C(=O)NCC(=O)O` (stereo not given) the Reduction [2] was 40%, the Activity [3] was “Poor or moderate activity” and the Activity [4] was “Poor or moderate activity”.

In the case of `NC(CCC(=O)NC(CCC(=O)NO)C(=O)NCC(=O)O)C(=O)O` (stereo not given) (γGlu-Glu(NHOH)-Gly-OH; configuration not given here), the Reduction [5] was 38%, the Activity [3] was “Poor or moderate activity” and the Reduction [6] was 46%. The Reduction [1] was 34% and 31%, the Reduction [7] was 31% and the Activity [4] was “Poor or moderate activity”.

Reference: ChEMBL document CHEMBL1131657, “Syntheses and kinetic evaluation of hydroxamate-based peptide inhibitors of glyoxalase I” (Bioorg Med Chem Lett, 1998)
